Assays:
Format in all cases: cell-based
M4 muscarinic receptor = target: T1, M4 muscarinic receptor (Homo sapiens, UniProt P08173); assay: Functional mobilization of intracellular calcium (FLIPR), M4-CHO cells; settings: for Emax: 100% efficacy is the maximum response obtained with the Carbachol control; for M4 Activity: M4-CHO cells, calcium mobilization (FLIPR)
T1 construct: expressed in transfected cells; host or cells: CHO (M4-CHO)
T1 sequence (P08173 1-479): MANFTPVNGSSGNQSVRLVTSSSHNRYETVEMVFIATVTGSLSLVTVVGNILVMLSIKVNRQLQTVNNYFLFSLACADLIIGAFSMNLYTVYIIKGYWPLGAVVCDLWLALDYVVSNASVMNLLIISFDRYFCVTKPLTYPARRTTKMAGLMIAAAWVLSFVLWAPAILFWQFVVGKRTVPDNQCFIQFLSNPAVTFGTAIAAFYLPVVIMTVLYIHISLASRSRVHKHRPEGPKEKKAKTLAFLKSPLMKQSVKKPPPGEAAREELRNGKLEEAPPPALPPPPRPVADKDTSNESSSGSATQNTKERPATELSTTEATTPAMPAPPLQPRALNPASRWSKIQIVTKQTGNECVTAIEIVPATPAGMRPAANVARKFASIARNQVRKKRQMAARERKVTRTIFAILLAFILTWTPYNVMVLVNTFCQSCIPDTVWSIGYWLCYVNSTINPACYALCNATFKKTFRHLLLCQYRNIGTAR
Method in brief: (§1)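 CHO cells expressing human M1–M4 receptors loaded with Fluo-3 AM or Calcium 3 dye (1 mM probenecid, pH 7.4); 0.5% DMSO final. Agonist mode: compound added directly; antagonist mode: 15 min pre-incubation or co-application, then carbachol at EC80. Fluorescence read 60 s on FLIPR; efficacy relative to carbachol maximum.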

M1 muscarinic receptor = target: T2, M1 muscarinic receptor (Homo sapiens, UniProt P11229); assay: Functional mobilization of intracellular calcium (FLIPR), M1-CHO cells; settings: for Emax: 100% efficacy is the maximum response obtained with the Carbachol control; for M1 Activity: M1-CHO cells, calcium mobilization (FLIPR)
T2 construct: expressed in transfected cells; host or cells: CHO (M1-CHO)
T2 sequence (P11229 1-460): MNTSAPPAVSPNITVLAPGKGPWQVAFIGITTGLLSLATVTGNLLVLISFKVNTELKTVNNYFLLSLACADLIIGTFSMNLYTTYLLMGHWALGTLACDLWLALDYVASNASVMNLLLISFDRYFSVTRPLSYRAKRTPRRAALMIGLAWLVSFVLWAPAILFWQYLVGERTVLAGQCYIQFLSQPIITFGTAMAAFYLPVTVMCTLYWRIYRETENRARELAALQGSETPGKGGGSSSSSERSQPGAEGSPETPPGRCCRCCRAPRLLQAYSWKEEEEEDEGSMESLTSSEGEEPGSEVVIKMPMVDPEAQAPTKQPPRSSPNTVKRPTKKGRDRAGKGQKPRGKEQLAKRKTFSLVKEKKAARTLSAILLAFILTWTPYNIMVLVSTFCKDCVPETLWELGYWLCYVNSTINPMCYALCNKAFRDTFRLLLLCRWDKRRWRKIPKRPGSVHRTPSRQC
Method in brief: as §1

M3 muscarinic receptor = target: T3, M3 muscarinic receptor (Homo sapiens, UniProt P20309); assay: Functional mobilization of intracellular calcium (FLIPR), M3-CHO cells; settings: for Emax: 100% efficacy is the maximum response obtained with the Carbachol control; for M3 Activity: M3-CHO cells, calcium mobilization (FLIPR)
T3 construct: expressed in transfected cells; host or cells: CHO (M3-CHO)
T3 sequence (P20309 whole entry): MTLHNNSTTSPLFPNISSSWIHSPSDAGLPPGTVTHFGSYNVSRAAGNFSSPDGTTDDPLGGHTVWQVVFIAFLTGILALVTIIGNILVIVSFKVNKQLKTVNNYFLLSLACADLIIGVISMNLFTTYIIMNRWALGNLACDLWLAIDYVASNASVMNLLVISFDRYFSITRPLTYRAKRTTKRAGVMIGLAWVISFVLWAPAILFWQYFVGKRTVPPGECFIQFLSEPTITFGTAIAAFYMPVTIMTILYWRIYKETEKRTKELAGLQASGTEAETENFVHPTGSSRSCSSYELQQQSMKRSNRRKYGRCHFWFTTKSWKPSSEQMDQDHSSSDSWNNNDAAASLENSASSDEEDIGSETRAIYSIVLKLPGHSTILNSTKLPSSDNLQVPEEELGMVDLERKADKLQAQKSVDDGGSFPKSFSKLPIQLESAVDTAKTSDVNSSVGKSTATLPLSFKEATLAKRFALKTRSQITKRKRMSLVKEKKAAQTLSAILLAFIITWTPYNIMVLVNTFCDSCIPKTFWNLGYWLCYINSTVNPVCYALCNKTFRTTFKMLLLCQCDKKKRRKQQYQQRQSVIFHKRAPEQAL
Method in brief: as §1

M2 muscarinic receptor = target: T4, M2 muscarinic receptor (Homo sapiens, UniProt P08172); assay: Functional mobilization of intracellular calcium (FLIPR), M2-CHO cells; settings: for Emax: 100% efficacy is the maximum response obtained with the Carbachol control; for M2 Activity: M2-CHO cells, calcium mobilization (FLIPR)
T4 construct: expressed in transfected cells; host or cells: CHO (M2-CHO)
T4 sequence (P08172 1-466): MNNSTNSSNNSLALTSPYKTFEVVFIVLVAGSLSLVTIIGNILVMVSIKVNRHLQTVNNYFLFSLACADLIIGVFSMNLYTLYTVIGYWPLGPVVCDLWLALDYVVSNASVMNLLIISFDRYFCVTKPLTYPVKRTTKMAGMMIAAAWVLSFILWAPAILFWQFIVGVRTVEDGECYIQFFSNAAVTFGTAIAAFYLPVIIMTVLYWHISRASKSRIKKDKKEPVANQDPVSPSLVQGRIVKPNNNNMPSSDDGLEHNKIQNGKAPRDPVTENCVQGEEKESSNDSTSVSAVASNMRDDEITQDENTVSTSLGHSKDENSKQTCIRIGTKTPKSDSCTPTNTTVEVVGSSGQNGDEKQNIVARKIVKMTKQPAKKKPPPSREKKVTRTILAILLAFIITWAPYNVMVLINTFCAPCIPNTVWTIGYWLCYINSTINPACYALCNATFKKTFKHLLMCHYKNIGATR
Method in brief: as §1

SMILES | Emax (M4 muscarinic receptor) | M4 Activity (M4 muscarinic receptor) | Emax (M1 muscarinic receptor) | M1 Activity (M1 muscarinic receptor) | Emax (M3 muscarinic receptor) | M3 Activity (M3 muscarinic receptor) | Emax (M2 muscarinic receptor) | M2 Activity (M2 muscarinic receptor)
COc1ccc(-c2ccc(C(=O)NC3CC3)cc2)cc1C1CCN([C@H]2C[C@H]3CC[C@H]2C3)CC1 [Compound 401] | < 25% | + (activity was measured to be greater than 5.0 μM) | < 25% | + (activity was measured to be greater than 5.0 μM) | < 25% | + (activity was measured to be greater than 5.0 μM) | < 25% | + (activity was measured to be greater than 5.0 μM)
COc1cccc(-c2ccccc2C2CCN([C@H]3C[C@H]4CC[C@H]3C4)CC2)c1OC [Compound 402] | 25 to 100% | ++ (activity was measured to be from 1.0 μM to 5.0 μM) | < 25% | + (activity was measured to be greater than 5.0 μM) | < 25% | + (activity was measured to be greater than 5.0 μM) | < 25% | + (activity was measured to be greater than 5.0 μM)
COc1ccc(-c2ccc(C(C)(C)C#N)cc2)cc1C1CCN(C2C[C@H]3CC[C@H]2C3)CC1 (stereo partly shown) [Compound 403] | 25 to 100% | ++ (activity was measured to be from 1.0 μM to 5.0 μM) | 25 to 100% | + (activity was measured to be greater than 5.0 μM) | < 25% | + (activity was measured to be greater than 5.0 μM) | < 25% | + (activity was measured to be greater than 5.0 μM)
C=Cc1ccc(OC)c(C2CCN([C@@H]3C[C@H]4CC[C@H]3C4)CC2)c1 [Compound 404] | 25 to 100% | +++ (activity was measured to be less than 1.0 μM) | 25 to 100% | ++ (activity was measured to be from 1.0 μM to 5.0 μM) | < 25% | + (activity was measured to be greater than 5.0 μM) | < 25% | + (activity was measured to be greater than 5.0 μM)
CCOC(=O)N1CCC(CN2CCC(c3ccccc3C(F)(F)F)CC2)CC1 [Compound 405] | > 100% | +++ (activity was measured to be less than 1.0 μM) | 25 to 100% | +++ (activity was measured to be less than 1.0 μM) | < 25% | + (activity was measured to be greater than 5.0 μM) | 25 to 100% | ++ (activity was measured to be from 1.0 μM to 5.0 μM)
CCOC(=O)N1C2CCC1CC(N1CCC(c3cc(Cl)ccc3OC)CC1)C2 (stereo not shown) [Compound 406] | 25 to 100% | +++ (activity was measured to be less than 1.0 μM) | 25 to 100% | +++ (activity was measured to be less than 1.0 μM) | 25 to 100% | + (activity was measured to be greater than 5.0 μM) | 25 to 100% | +++ (activity was measured to be less than 1.0 μM)
COc1ccc(-c2ccc(C(N)=O)cc2)cc1C1CCN([C@H]2C[C@H]3CC[C@H]2C3)CC1 [Compound 407] | 25 to 100% | +++ (activity was measured to be less than 1.0 μM) | < 25% | + (activity was measured to be greater than 5.0 μM) | < 25% | + (activity was measured to be greater than 5.0 μM) | < 25% | + (activity was measured to be greater than 5.0 μM)
COc1ccccc1C1CCN(C2C3CC4CC(C3)CC2C4)CC1 (stereo not shown) [Compound 408] | 25 to 100% | +++ (activity was measured to be less than 1.0 μM) | 25 to 100% | + (activity was measured to be greater than 5.0 μM) | < 25% | + (activity was measured to be greater than 5.0 μM) | < 25% | + (activity was measured to be greater than 5.0 μM)

Reference: US7880007B2, “Bicyclic substituted phenyl piperidine modulators of muscarinic receptors” (Vertex Pharmaceuticals Incorporated, priority 2004, dated 2011)
